# Results reported in patent publication US4818761A, “2-(4-pyridylaminomethyl)-benzimidazole derivatives having antiviral activity” (priority 1986, dated 1989).
# Experiments:
# in vitro [1] = details: monkey, llc-mk2 cells
# [2] = test system: enterovirus type 70 (EV70); assay: Inhibition of EV70 plaque formation in LLC-MK2 cells; format: cell-based; details: for CI EV70 (C)/(A): CI = CD50 (LLC-MK2)/IC50 (plaque); for IC50: Enterovirus D, plaque reduction, LLC-MK2 cells, 33° C.
# [3] = test system: rhinovirus type 14 (HRV14); assay: Inhibition of HRV14 plaque formation in HeLa cells; format: cell-based; details: for CI HRV14 (D)/(B): CI = CD50 (HeLa)/IC50 (plaque); for IC50: Enterovirus, HRV14, plaque reduction, HeLa cells, 33° C.
# [4] = test system: poliovirus type 2 (Polio2); assay: microbe, parasite or virus in culture; format: cell-based; details: for IC50: Enterovirus C, LLC-MK2, read-out: IC50 Polio2; for CI Polio2 (C)/(A): CI = CD50 (LLC-MK2)/IC50 (plaque)
# [5] = test system: coxsackievirus type B4 (CB4); assay: Inhibition of CB4 plaque formation in LLC-MK2 cells; format: cell-based; details: for CI CB4 (C)/(A): CI = CD50 (LLC-MK2)/IC50 (plaque); for IC50: Coxsackievirus, plaque reduction, LLC-MK2 cells, 37° C.
# in vitro [6] = details: human, hela cells
# [7] = test system: rhinovirus type 14 (HRV14); assay: Inhibition of HRV14 cytopathogenic effect (CPE) in HeLa cells; format: cell-based; details: for IC50: Enterovirus, HRV14, * Virus CPE inhibition assay, HeLa cells, 33° C.
# [8] = test system: enterovirus type 70 (EV70); assay: Inhibition of EV70 cytopathogenic effect (CPE) in LLC-MK2 cells; format: cell-based; details: for IC50: Enterovirus D, * Virus CPE inhibition assay, LLC-MK2 cells, 33° C.; for CI EV70 (C)/(A): CI = CD50 (LLC-MK2)/IC50 (virus CPE)
# [9] = test system: coxsackievirus type B4 (CB4); assay: Inhibition of CB4 cytopathogenic effect (CPE) in LLC-MK2 cells; format: cell-based; details: for IC50: Coxsackievirus, * Virus CPE inhibition assay, LLC-MK2 cells, 37° C.; for CI CB4 (C)/(A): CI = CD50 (LLC-MK2)/IC50 (virus CPE)
SMILES,CC50 (in vitro [1]),CI EV70 (C)/(A) [2],IC50 [2],CI HRV14 (D)/(B) [3],IC50 [3],IC50 [4],CI CB4 (C)/(A) [5],IC50 [5],CC50 (in vitro [6]),IC50 [7],IC50 [8],IC50 [9],CI Polio2 (C)/(A) [4],CI CB4 (C)/(A) [9],CI EV70 (C)/(A) [8],CI HRV14 (D)/(B) ([7]; CI = CD50 (HeLa)/IC50 (virus CPE))
"Brc1ccc2[nH]c(CNc3ccncc3)nc2c1 [I, 2-(4-pyridylaminomethyl)-5-(6)-bromobenzimidazole]",312 µg/mL,101,3.1 µg/mL,3,5.8 µg/mL,> 25 µg/mL,17,18 µg/mL,17.8 µg/mL,,,,,,,
Fc1ccc2[nH]c(CNc3ccncc3)nc2c1 [II],177 µg/mL,126,1.4 µg/mL,4,14.5 µg/mL,> 25 µg/mL,29,6 µg/mL,56.2 µg/mL,,,,,,,
CCOc1ccc2[nH]c(CNc3ccncc3)nc2c1 [IV],> 100 µg/mL,> 3,39 µg/mL,,,460 µg/mL,> 1,93 µg/mL,> 100 µg/mL,> 100 µg/mL,,,,,,
CC(C)(C)C(=O)Cn1c(CNc2ccncc2)nc2ccccc21 [LIII],> 2000 µg/mL,,,,,,,,,> 100 µg/mL,> 100 µg/mL,> 100 µg/mL,,,,
CCOCCn1c(CNc2ccncc2)nc2ccccc21 [LIV],> 2000 µg/mL,,,,,,,,,> 100 µg/mL,> 100 µg/mL,> 100 µg/mL,,,,
Clc1ccc(-n2c(CNc3ccncc3)nc3ccccc32)cc1 [LIX],> 1000 µg/mL,> 833,1.2 µg/mL,> 4,25 µg/mL,9.6 µg/mL,"> 1,176",0.85 µg/mL,> 100 µg/mL,,,,> 111,,,
OCCCn1c(CNc2ccncc2)nc2ccccc21 [LI],> 1000 µg/mL,,,,> 100 µg/mL,,,,,,> 100 µg/mL,56.2 µg/mL,,18,,
"Cl.Fc1cccc(-n2c(CNc3ccncc3)nc3ccccc32)c1 [LVIII, 1-(3-fluorophenyl)-2-(4-pyridylaminomethyl)benzimidazole hydrochloride]",> 1000 µg/mL,> 200,5 µg/mL,,,> 100 µg/mL,> 278,3.6 µg/mL,> 100 µg/mL,> 100 µg/mL,,,,,,
Fc1ccccc1-n1c(CNc2ccncc2)nc2ccccc21 [LVII],2000 µg/mL,83,24.1 µg/mL,,,> 100 µg/mL,233,8.6 µg/mL,> 100 µg/mL,> 100 µg/mL,,,,,,
CC(=O)OCCOCn1c(CNc2ccncc2)nc2ccccc21 [LV],> 100 µg/mL,> 63,1.6 µg/mL,> 6,15.6 µg/mL,17.6 µg/mL,8,11.9 µg/mL,> 100 µg/mL,,,,> 6,,,
CCc1ccccc1-n1c(CNc2ccncc2)nc2ccccc21 [LXV],> 100 µg/mL,,,,,,,,> 100 µg/mL,> 100 µg/mL,> 100 µg/mL,> 100 µg/mL,,,,
Cc1cc(C)c(-n2c(CNc3ccncc3)nc3ccccc32)c(C)c1 [LXXII],> 100 µg/mL,,,,,,,,,,> 100 µg/mL,> 100 µg/mL,,,,
c1ccc(Oc2ccc3[nH]c(CNc4ccncc4)nc3c2)cc1 [LXXIV],> 100 µg/mL,,,> 6,17.8 µg/mL,,,,> 100 µg/mL,,> 100 µg/mL,> 100 µg/mL,,,,
Cc1ccc(-n2c(CNc3ccncc3)nc3ccccc32)cc1F [LXXI],> 100 µg/mL,> 25,4 µg/mL,> 2,49.7 µg/mL,> 50 µg/mL,> 31,3.2 µg/mL,> 100 µg/mL,,,,,,,
Cc1ccc(-n2c(CNc3ccncc3)nc3ccccc32)cc1C [LXX],> 100 µg/mL,> 15,6.5 µg/mL,> 2,40.7 µg/mL,> 50 µg/mL,> 6,16 µg/mL,> 100 µg/mL,,,,,,,
Brc1ccc(-n2c(CNc3ccncc3)nc3ccccc32)cc1 [LX],> 100 µg/mL,> 53,1.9 µg/mL,> 3,39.9 µg/mL,> 50 µg/mL,> 100,1 µg/mL,> 100 µg/mL,,,,,,,
CC(C)c1ccc2[nH]c(CNc3ccncc3)nc2c1 [VI],> 1000 µg/mL,> 476,2.1 µg/mL,3,16.5 µg/mL,> 100 µg/mL,> 15,69 µg/mL,56.2 µg/mL,,,,,,,
"CCn1c(CNc2ccncc2)nc2cc(C)ccc21 [XL, 1-ethyl-2-(4-pyridylaminomethyl)-5-methyl benzimidazole]",> 100 µg/mL,,,,,,,,,,> 100 µg/mL,56.2 µg/mL,,> 2,,
CC(C)Cn1c(CNc2ccncc2)nc2ccccc21 [XLIX],> 2000 µg/mL,,> 100 µg/mL,,,,,,,> 100 µg/mL,,2.1 µg/mL,,> 952,,
CCc1ccc2c(c1)nc(CNc1ccncc1)n2CC [XLI],> 100 µg/mL,,,,,,,,,,> 100 µg/mL,> 100 µg/mL,,,,
Clc1ccc2nc(CNc3ccncc3)n(-c3ccccc3)c2c1 [XLVII],> 300 µg/mL,> 130,2.3 µg/mL,4,4.4 µg/mL,> 100 µg/mL,> 250,1.2 µg/mL,17.8 µg/mL,,,,,,,
Clc1ccc2c(c1)nc(CNc1ccncc1)n2-c1ccccc1 [XLVI],> 100 µg/mL,,,,,,,,,,13.2 µg/mL,1.8 µg/mL,,> 56,> 8,
CCc1ccc2nc(CNc3ccncc3)n(-c3ccccc3)c2c1 [XLV],56.2 µg/mL,35,1.6 µg/mL,,,> 100 µg/mL,11,5 µg/mL,56.2 µg/mL,5.6 µg/mL,,,,,,10
c1ccc2c(c1)nc(CNc1ccncc1)n2C1CCCC1 [XVII],1410 µg/mL,,,,> 50 µg/mL,,,,,,> 100 µg/mL,5.6 µg/mL,,> 253,,
"c1ccc(Cn2c(CNc3ccncc3)nc3ccccc32)cc1 [XXIV, 1-benzyl-2-(4-pyridylaminomethyl)benzimidazole]",> 2000 µg/mL,,,,> 50 µg/mL,,,,,,> 100 µg/mL,56.2 µg/mL,,> 36,,
Cc1cc2nc(CNc3ccncc3)[nH]c2cc1Cl [XXIX],177 µg/mL,118,1.5 µg/mL,15,3.8 µg/mL,52 µg/mL,15,11.5 µg/mL,56.2 µg/mL,,,,3,,,
Clc1cc(Cl)c2nc(CNc3ccncc3)[nH]c2c1 [XXVII],> 100 µg/mL,,,,,,,,17.8 µg/mL,> 17.8 µg/mL,> 100 µg/mL,,,,,
Cc1cc(Cl)c2nc(CNc3ccncc3)[nH]c2c1 [XXVI],1410 µg/mL,,,,,,,,56.2 µg/mL,> 56.2 µg/mL,> 100 µg/mL,,,,,
Cc1cc(Cl)cc2[nH]c(CNc3ccncc3)nc12 [XXV],707 µg/mL,,,,,,,,17.8 µg/mL,17.8 µg/mL,56.2 µg/mL,,,,13,
